≈ marks a conversion by molar mass, not a printed value. Calls of active or inactive are those of the source. The rule behind the calls is not given here.
What was measured:
Bacillus subtilis [1] = experiment: Antibacterial activity against Bacillus subtilis MTCC 121 after 24 hrs by well diffusion method; type: functional; settings: MTCC 121, 24 h
Staphylococcus aureus [2] = experiment: Antibacterial activity against Staphylococcus aureus MTCC 96 after 24 hrs by well diffusion method; type: functional; settings: MTCC 96, 24 h
Staphylococcus aureus [3] = experiment: Antibacterial activity against Staphylococcus aureus MLS16 MTCC 2940 after 24 hrs by well diffusion method; type: functional; settings: MLS16 MTCC 2940, 24 h
Micrococcus luteus [4] = experiment: Antibacterial activity against Micrococcus luteus MTCC 2470 after 24 hrs by well diffusion method; type: functional; settings: MTCC 2470, 24 h
Raoultella planticola = experiment: Antibacterial activity against Klebsiella planticola MTCC 530 after 24 hrs by well diffusion method; type: functional; settings: MTCC 530, 24 h
Escherichia coli = experiment: Antibacterial activity against Escherichia coli MTCC 739 after 24 hrs by well diffusion method; type: functional; settings: MTCC 739, 24 h
Pseudomonas aeruginosa = experiment: Antibacterial activity against Pseudomonas aeruginosa MTCC 2453 after 24 hrs by well diffusion method; type: functional; settings: MTCC 2453, 24 h
Staphylococcus aureus [5] = experiment: Bactericidal activity against Staphylococcus aureus MTCC 96 after 24 hrs by serial dilution method; type: functional; settings: MTCC 96, 24 h
Bacillus subtilis [6] = experiment: Bactericidal activity against Bacillus subtilis MTCC 121 after 24 hrs by serial dilution method; type: functional; settings: MTCC 121, 24 h
Staphylococcus aureus [7] = experiment: Bactericidal activity against Staphylococcus aureus MLS16 MTCC 2940 after 24 hrs by serial dilution method; type: functional; settings: MLS16 MTCC 2940, 24 h
Micrococcus luteus [8] = experiment: Bactericidal activity against Micrococcus luteus MTCC 2470 after 24 hrs by serial dilution method; type: functional; settings: MTCC 2470, 24 h
Staphylococcus aureus [9] = experiment: Ratio of MBC to MIC for Staphylococcus aureus MTCC 96; type: functional
Bacillus subtilis [10] = experiment: Ratio of MBC to MIC for Bacillus subtilis MTCC 121; type: functional
Staphylococcus aureus [11] = experiment: Ratio of MBC to MIC for Staphylococcus aureus MLS16 MTCC 2940; type: functional
Micrococcus luteus [12] = experiment: Ratio of MBC to MIC for Micrococcus luteus MTCC 2470; type: functional
Staphylococcus aureus [13] = experiment: Antibiofilm activity against Staphylococcus aureus MTCC 96 after 24 hrs by crystal violet staining based assay; type: functional; settings: MTCC 96, 24 h
Bacillus subtilis [14] = experiment: Antibiofilm activity against Bacillus subtilis MTCC 121 after 24 hrs by crystal violet staining based assay; type: functional; settings: MTCC 121, 24 h
Staphylococcus aureus [15] = experiment: Antibiofilm activity against Staphylococcus aureus MLS16 MTCC 2940 after 24 hrs by crystal violet staining based assay; type: functional; settings: MLS16 MTCC 2940, 24 h
Micrococcus luteus [16] = experiment: Antibiofilm activity against Micrococcus luteus MTCC 2470 after 24 hrs by crystal violet staining based assay; type: functional; settings: MTCC 2470, 24 h
Micrococcus luteus [17] = experiment: Induction of ROS generation in Micrococcus luteus MTCC 2470 mature biofilms at up to 4 ug/ml after 24 hrs by DCFH-DA staining based fluorometric assay; type: functional
Micrococcus luteus [18] = experiment: Induction of ROS generation in Micrococcus luteus MTCC 2470 mature biofilms at 0.5 to 2 ug/ml after 24 hrs by DCFH-DA staining based fluorometric assay; type: functional
Micrococcus luteus [19] = experiment: Induction of intracellular ROS accumulation in Micrococcus luteus MTCC 2470 sessile biofilm cells at 0.5 to 4 ug/ml after 24 hrs by DCFH-DA staining-based assay; type: functional, cell-based
Micrococcus luteus [20] = experiment: Induction of membrane permeability in Micrococcus luteus MTCC 2470 assessed as protein leakage at 1 to 2 times antibacterial MIC up to 12 hrs by Bradford protein assay; type: functional
Micrococcus luteus [21] = experiment: Induction of membrane permeability in Micrococcus luteus MTCC 2470 assessed as protein leakage at 1 to 2 times antibacterial MIC after 12 to 24 hrs by Bradford protein assay; type: functional

| SMILES | MIC (Bacillus subtilis [1]) [µg/mL] | MIC (Staphylococcus aureus [2]) [µg/mL] | MIC (Staphylococcus aureus [3]) [µg/mL] | MIC (Micrococcus luteus [4]) [µg/mL] | MIC (Raoultella planticola) [µg/mL] | MIC (Escherichia coli) [µg/mL] | MIC (Pseudomonas aeruginosa) [µg/mL] | MBC (Staphylococcus aureus [5]) [µg/mL] | MBC (Bacillus subtilis [6]) [µg/mL] | MBC (Staphylococcus aureus [7]) [µg/mL] | MBC (Micrococcus luteus [8]) [µg/mL] | IC50 (Staphylococcus aureus [15]) [µg/mL] | other results |
| --- | --- | --- | --- | --- | --- | --- | --- | --- | --- | --- | --- | --- | --- |
| Cc1ccc(N2C=Nc3c(c(=O)n(C)c(=O)n3C)C2c2cn(-c3ccccc3)nc2-c2ccc([N+](=O)[O-])cc2)cc1 (configuration not stated) | 7.8 (≈ 14.2 µM) | 15.6 (≈ 28.5 µM) | 7.8 (≈ 14.2 µM) | 15.6 (≈ 28.5 µM) | > 125 | > 125 | > 125 | 31.2 (≈ 57 µM) | 31.2 (≈ 57 µM) | 15.6 (≈ 28.5 µM) | 15.6 (≈ 28.5 µM) | 9.5 (≈ 17.3 µM) | Ratio (Staphylococcus aureus [9]): 2; Ratio (Bacillus subtilis [10]): 2; Ratio (Staphylococcus aureus [11]): 2; Ratio (Micrococcus luteus [12]): 2; IC50 (Staphylococcus aureus [13]): 12.6 µg/mL (≈ 23 µM); IC50 (Bacillus subtilis [14]): 18.3 µg/mL (≈ 33.4 µM); IC50 (Micrococcus luteus [16]): 10.1 µg/mL (≈ 18.4 µM) |
| O=C(O)c1cn(C2CC2)c2cc(N3CCNCC3)c(F)cc2c1=O [CIPROFLOXACIN] | 0.9 (≈ 2.72 µM) | 0.9 (≈ 2.72 µM) | 0.9 (≈ 2.72 µM) | 0.9 (≈ 2.72 µM) | 0.9 (≈ 2.72 µM) | 0.9 (≈ 2.72 µM) | 0.9 (≈ 2.72 µM) | 1.9 (≈ 5.73 µM) | 0.9 (≈ 2.72 µM) | 0.9 (≈ 2.72 µM) | 1.9 (≈ 5.73 µM) | 0.4 (≈ 1.21 µM) | Activity (Micrococcus luteus [17]): Active |
| Cc1ccc(N2C=Nc3c(c(=O)n(C)c(=O)n3C)C2c2cn(-c3ccccc3)nc2-c2ccc(Cl)cc2)cc1 (configuration not stated) | > 125 | > 125 | > 125 | 15.6 (≈ 29 µM) | > 125 | > 125 | > 125 | > 125 | > 125 | > 125 | 31.2 (≈ 58.1 µM) |  |  |
| Cn1c2c(c(=O)n(C)c1=O)C(c1cn(-c3ccccc3)nc1-c1cccs1)N(c1ccc(Cl)cc1)C=N2 (configuration not stated) | 15.6 (≈ 29.5 µM) | 31.2 (≈ 59 µM) | 15.6 (≈ 29.5 µM) | 15.6 (≈ 29.5 µM) | > 125 | > 125 | > 125 | 31.2 (≈ 59 µM) | 31.2 (≈ 59 µM) | 31.2 (≈ 59 µM) | 31.2 (≈ 59 µM) |  |  |
| Cn1c2c(c(=O)n(C)c1=O)C(c1cn(-c3ccccc3)nc1-c1ccccc1)N(c1ccc(Cl)cc1)C=N2 (configuration not stated) | > 125 | > 125 | > 125 | > 125 | > 125 | > 125 | > 125 | 62.5 (≈ 120 µM) | 62.5 (≈ 120 µM) | 62.5 (≈ 120 µM) | 31.2 (≈ 59.7 µM) |  |  |
| Cc1ccc(-c2nn(-c3ccccc3)cc2C2c3c(n(C)c(=O)n(C)c3=O)N=CN2c2ccc(C)cc2)cc1 (configuration not stated) | 7.8 (≈ 15.1 µM) | 7.8 (≈ 15.1 µM) | 15.6 (≈ 30.2 µM) | 7.8 (≈ 15.1 µM) | > 125 | > 125 | > 125 | 15.6 (≈ 30.2 µM) | 31.2 (≈ 60.4 µM) | 15.6 (≈ 30.2 µM) | 15.6 (≈ 30.2 µM) | 8.2 (≈ 15.9 µM) | Ratio (Staphylococcus aureus [9]): 2; Ratio (Bacillus subtilis [10]): 2; Ratio (Staphylococcus aureus [11]): 2; Ratio (Micrococcus luteus [12]): 2; IC50 (Staphylococcus aureus [13]): 4.2 µg/mL (≈ 8.13 µM); IC50 (Bacillus subtilis [14]): 3.6 µg/mL (≈ 6.97 µM); IC50 (Micrococcus luteus [16]): 3.3 µg/mL (≈ 6.39 µM) |
| COc1ccc(N2C=Nc3c(c(=O)n(C)c(=O)n3C)C2c2cn(-c3ccccc3)nc2-c2ccc(Cl)cc2)cc1 (configuration not stated) | 31.2 (≈ 56.4 µM) | 15.6 (≈ 28.2 µM) | 15.6 (≈ 28.2 µM) | 7.8 (≈ 14.1 µM) | > 125 | > 125 | > 125 | 31.2 (≈ 56.4 µM) | 31.2 (≈ 56.4 µM) | 15.6 (≈ 28.2 µM) | 15.6 (≈ 28.2 µM) |  | Ratio (Bacillus subtilis [10]): 2; Ratio (Staphylococcus aureus [11]): 2 |
| COc1ccc(N2C=Nc3c(c(=O)n(C)c(=O)n3C)C2c2cn(-c3ccccc3)nc2-c2ccc(C)cc2)cc1 (configuration not stated) | > 125 | > 125 | > 125 | > 125 | > 125 | > 125 | > 125 | 62.5 (≈ 117 µM) | 62.5 (≈ 117 µM) | 31.2 (≈ 58.6 µM) | 15.6 (≈ 29.3 µM) |  |  |
| Cc1ccc(N2C=Nc3c(c(=O)n(C)c(=O)n3C)C2c2cn(-c3ccccc3)nc2-c2cccs2)cc1 (configuration not stated) | 31.2 (≈ 61.3 µM) | 15.6 (≈ 30.7 µM) | 15.6 (≈ 30.7 µM) | 15.6 (≈ 30.7 µM) | > 125 | > 125 | > 125 | 31.2 (≈ 61.3 µM) | 31.2 (≈ 61.3 µM) | 31.2 (≈ 61.3 µM) | 31.2 (≈ 61.3 µM) |  |  |
| Cc1ccc(-c2nn(-c3ccccc3)cc2C2c3c(n(C)c(=O)n(C)c3=O)N=CN2c2ccc(Cl)cc2)cc1 (configuration not stated) | 7.8 (≈ 14.5 µM) | 7.8 (≈ 14.5 µM) | 7.8 (≈ 14.5 µM) | 3.9 (≈ 7.26 µM) | > 125 | > 125 | > 125 | 7.8 (≈ 14.5 µM) | 7.8 (≈ 14.5 µM) | 31.2 (≈ 58.1 µM) | 15.6 (≈ 29 µM) | 4.4 (≈ 8.19 µM) | Ratio (Staphylococcus aureus [9]): 2; Ratio (Micrococcus luteus [12]): 2; IC50 (Staphylococcus aureus [13]): 3.9 µg/mL (≈ 7.26 µM); IC50 (Bacillus subtilis [14]): 4.1 µg/mL (≈ 7.63 µM); IC50 (Micrococcus luteus [16]): 1.8 µg/mL (≈ 3.35 µM); Activity (Micrococcus luteus [18]): Active; Activity (Micrococcus luteus [19]): Active; Activity (Micrococcus luteus [20]): inactive; Activity (Micrococcus luteus [21]): Active |
| COc1ccc(N2C=Nc3c(c(=O)n(C)c(=O)n3C)C2c2cn(-c3ccccc3)nc2-c2cccs2)cc1 (configuration not stated) | 31.2 (≈ 59.5 µM) | 15.6 (≈ 29.7 µM) | 15.6 (≈ 29.7 µM) | 15.6 (≈ 29.7 µM) | > 125 | > 125 | > 125 | 31.2 (≈ 59.5 µM) | 31.2 (≈ 59.5 µM) | 31.2 (≈ 59.5 µM) | 15.6 (≈ 29.7 µM) |  |  |
| Cn1c2c(c(=O)n(C)c1=O)C(c1cn(-c3ccccc3)nc1-c1ccc([N+](=O)[O-])cc1)N(c1cccc([N+](=O)[O-])c1)C=N2 (configuration not stated) | > 125 | > 125 | > 125 | 31.2 (≈ 53.9 µM) | > 125 | > 125 | > 125 | > 125 | > 125 | > 125 | 62.5 (≈ 108 µM) |  |  |

— ChEMBL document CHEMBL3997821, “Design, synthesis and evaluation of novel pyrazolo-pyrimido[4,5-d]pyrimidine derivatives as potent antibacterial and biofilm inhibitors” (Bioorg Med Chem Lett, 2017)
